Results published in patent US20210038579A1, “Treatment Of Patients With Classic Fabry Disease” (Amicus Therapeutics, Inc., priority 2018, published 2021).

Tests used:
[1] = target: T1, α-Gal A mutant form p.Pro205Thr (c.613 C > A) (Homo sapiens, UniProt P06280, P205T); test: HEK assay: α-Gal A activity in HEK-293 cell lysate with migalastat; type: cell-based
T1 construct: expressed in transfected cells; host or cells: HEK-293
T1 sequence (P06280 32-429 P205T): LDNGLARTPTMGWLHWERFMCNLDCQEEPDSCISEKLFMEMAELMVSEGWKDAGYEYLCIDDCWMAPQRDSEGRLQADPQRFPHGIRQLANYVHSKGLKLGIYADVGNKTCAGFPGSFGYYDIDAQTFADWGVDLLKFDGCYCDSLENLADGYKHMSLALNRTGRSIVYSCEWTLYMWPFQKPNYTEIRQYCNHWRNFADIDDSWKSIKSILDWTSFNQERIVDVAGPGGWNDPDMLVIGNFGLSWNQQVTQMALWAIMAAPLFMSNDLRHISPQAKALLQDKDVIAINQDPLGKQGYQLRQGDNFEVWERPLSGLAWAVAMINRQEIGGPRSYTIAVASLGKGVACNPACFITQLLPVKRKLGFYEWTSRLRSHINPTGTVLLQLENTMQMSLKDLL
Protocol: (§1) Such mutations are also referred to herein as “HEK assay amenable” mutations.
(§2) In this assay, cDNA constructs are created. The corresponding α-Gal A mutant forms are transiently expressed in HEK-293 cells. Cells are then incubated±migalastat (17 nM to 1 mM) for 4 to 5 days. After, α-Gal A levels are measured in cell lysates using a synthetic fluorogenic substrate (4-MU-α-Gal) or by western blot. This has been done for known disease-causing missense or small in-frame insertion/deletion mutations.

α-Gal A mutant forms = test: HEK assay: means over groups of GLA mutations found in enrolled patients; type: cell-based, human; conditions: 10 μM of migalastat
Protocol: as §1, §2

plasma lyso-Gb3 = test: Phase 3 study, ERT-naïve Fabry patients: plasma lyso-Gb3 by liquid chromatography-mass-spectroscopy; type: in vivo, human; conditions: baseline (or month 6) to month 24
Protocol: Globotriaosylceramide and Globotriaosylsphingosine. Plasma lyso-Gb3 and 24-hour urine GL-3 were analyzed by liquid chromatography-mass-spectroscopy using a novel stable isotope-labeled internal standard, 13C6-lyso-Gb3 (lower-limit-of-quantification: 0.200 ng/mL, 0.254 nmol/L).
(§3) For all outcomes except GL-3 inclusions per kidney interstitial capillary, data are pooled for patients within phenotype subgroups regardless of treatment allocation for the first six months (migalastat or placebo).

[2] = Phase 3 study, ERT-naïve Fabry patients: Gastrointestinal Symptoms Rating Scale for Diarrhea (GSRS-D); type: in vivo, human; conditions: for mean change in GSRS-D: total amenable patient population
Protocol: as §3, with “Patient Enrollment. […] Study Design. […] Patient-Reported Outcomes. Patient-reported outcomes were assessed using the Gastrointestinal-Symptoms-Rating-Scale (GSRS), Short Form-36v2TM and Brief-Pain-Inventory-Pain-Severity-Component. For” for “For”

[3] = system: GL-3 inclusions per kidney interstitial capillary; test: Phase 3 study, ERT-naïve Fabry patients: kidney histology assessment; type: in vivo, human
Source text: Kidney Histology Assessment. Each patient underwent a baseline kidney biopsy, as well as repeat kidney biopsies at 6 and 12 months. The number of GL-3 inclusions per kidney interstitial capillary per patient at baseline, and at 6 and 12 months was quantitatively assessed in 300 capillaries by 3 independent pathologists blinded to treatment and visit. All values for each individual biopsy at a given time were averaged prior to statistical analysis.
Statistical Analyses for Kidney Interstitial Capillary GL-3 Substrate. The primary Stage 1 (6 month) endpoint (i population with baseline biopsies, n=64) was the proportion of patients in the migalastat and placebo groups with a ≥50% reduction in GL-3 inclusions per kidney interstitial capillary. Two other Stage 1 endpoints were assessed (modified-ITT population: randomized patients with paired baseline and month 6 biopsies; n=60): percent change in GL-3 inclusions per kidney interstitial capillary, and percent of interstitial capillaries with zero GL-3 inclusions.
Efficacy analyses for GL-3 inclusions per kidney interstitial capillary and other pre-specified endpoints in Stage 2 (months 6-12) and the open-label-extension (months 12-24) were based on the modified intention to treat (mITT)—population consisting of randomized patients with mutant α-Gal A enzyme shown to be suitable for migalastat treatment by the validated assay; n=50).
as §3

[4] = Phase 3 study, ERT-naïve Fabry patients: safety analysis and adverse events
Protocol: Study Design. Following eligibility-baseline assessments (2 months), patients were randomized to Stage 1—6 months of double-blind administration of 150 mg migalastat hydrochloride or placebo every other day. All patients completing Stage 1 were eligible to receive open-label migalastat in Stage 2 (months 6-12) and for an additional year (months 13-24) thereafter. […] Study completers were eligible to enroll in the open-label extension study for up to 5 years.
Safety Analysis and Adverse Events. Randomized patients receiving ≤1 dose were included in the safety analysis, which comprised vital signs, physical exams, electrocardiograms, clinical labs, and adverse events.

[5] = Phase 3 study, ERT-naïve Fabry patients: renal function assessment (eGFRCKD-EPI, mGFRiohexol); type: in vivo, human
Protocol: Patient Enrollment. […] Study Design. […] Renal Function Assessment. Annualized rates of change (mL/min/1.73 m^2/year) were calculated using Chronic Kidney Disease Epidemiology Collaboration-[…]) and measured iohexol clearance-mGFRiohexol). For all outcomes except GL-3 inclusions per kidney interstitial capillary, data are pooled for patients within phenotype subgroups regardless of treatment allocation for the first six months (migalastat or placebo).

[6] = +10 μM migalastat, HEK-293 cell lysate, mean ± SEM, n = 20
[7] = GLA mutations of enrolled patients reported as associated with the classic phenotype in the literature
[8] = open-label-extension, 6/57 patients
[9] = overall amenable population, baseline to month 24

## OC[C@H]1NC[C@H](O)[C@@H](O)[C@H]1O [migalastat]
[1]; 10 μM migalastat
  α-Gal A activity at 10 μM (fold over baseline): 3.41 fold over baseline
[1]; [6]
  +Migalastat α-Gal A activity: 16371 ± 647 nmol/mg/h
  +Migalastat α-Gal A activity % WT: 48.8 ± 2.2 % WT
[1]; HEK293, 10 μM migalastat minus baseline, read-out: Absolute increase at 10 μM (% WT)
  activation at 10 µM: 34.4%
α-Gal A mutant forms; [7]
  mean absolute increase in α-Gal A activity: 24.8 % of WT
  mean activity increase over baseline: 8.2 fold over baseline
α-Gal A mutant forms; all other mutations
  mean absolute increase in α-Gal A activity: 24.5 % of WT
  mean activity increase over baseline: 6.8 fold over baseline
Plasma lyso-Gb3; classic males
  average (SD) change in plasma lyso-Gb3: −36.04 (34.48) nmol/L
Plasma lyso-Gb3; other patients
  average (SD) change in plasma lyso-Gb3: −16.33 (19.73) nmol/L
[2]; 7 of the 8 patients, by 24 months
  classic male patients with diarrhea at baseline achieving MCID reduction of 0.33 in GSRS-D: 88%
[2]; classic male patients, by 24 months
  mean (SD) change from baseline (or month 6) in diarrhea symptoms (GSRS-D): −0.9 (1.75)
[2]; other patients, month 24
  mean (SD) change in GSRS-D: −0.5 (1.01)
[2]; month 6
  mean change in GSRS-D: −0.3
[2]; month 24
  mean change in GSRS-D: −0.5
[3]; classic male patients switched from placebo to migalastat at month 6, next 6 months
  mean (SD) change in GL-3 inclusions per kidney interstitial capillary: −0.7 (0.91)
[3]; total amenable patient population, 6 months of migalastat treatment
  mean change in GL-3 inclusions: −0.25
[3]; total patient population, after switching from placebo to migalastat at month 6
  mean change in GL-3 inclusions: −0.33
[4]; Stage 1, 6/34 patients receiving migalastat
  patients with nasopharyngitis: 18%
[4]; Stage 1, 12/34 patients receiving migalastat
  patients with headache: 35%
[4]; Stage 1, migalastat group
  patients experiencing serious adverse events: 2 patients
[4]; Stage 2
  patients experiencing serious adverse events: 5 patients
[4]; Stage 2, 7/63 patients
  patients with procedural pain (related to kidney biopsies): 11%
[4]; Stage 2, 9/63 patients
  patients with headache: 14%
[4]; as defined in Banikazemi et al.
  end-stage renal disease, cardiac death, stroke: no progression to end-stage renal disease, no cardiac death and no stroke
[4]; both deemed unrelated to migalastat
  patients who discontinued migalastat due to serious adverse events: Two
[4]; fatigue and paresthesia, same patient, months 12-24, resolved
  serious adverse events assessed as possibly related to migalastat by the investigator: Two
[4]; human, in vivo
  adverse events leading to migalastat discontinuation: No adverse events led to migalastat discontinuation
  vital sign, physical findings, laboratory, and ECG parameters: did not reveal any clinically relevant effect
[4]; judged unrelated to migalastat
  transient ischemic attack: single case
[4]; most adverse events
  severity of adverse events: mild or moderate in severity
[4]; open-label-extension
  patients experiencing serious adverse events: 11 patients
[4]; open-label-extension (months 12-24), 9/57 patients
  patients with (treatment-emergent) proteinuria: 16%
[4]; [8]
  patients with bronchitis: 11%
  patients with headache: 11%
[4]; patients with baseline proteinuria <300 mg/24-h
  patients in whom 24-hour urine protein remained stable during migalastat treatment: 23/28
[5]; classic male subgroup, baseline (or month 6 for patients randomized to placebo) to month 24, 150 mg migalastat hydrochloride every other day
  mean (SD) annualized rate of change in eGFRCKD-EPI: −0.3 (3.76) mL/min/1.73 m^2
[5]; classic males, baseline (or month 6) to month 24
  mean (SD) annualized rate of change in mGFRiohexol: −3.0 (6.04) mL/min/1.73 m^2
[5]; classic males, baseline to month 24
  median change in mGFRiohexol: -1.03 mL/min/1.73 m²
[5]; one classic patient, month 6 to month 24
  reduction in mGFRiohexol in one classic patient: -16 mL/min/1.73 m²
[5]; other patients subgroup, baseline (or month 6) to month 24
  mean (SD) annualized rate of change in eGFRCKD-EPI: −0.3 (4.47) mL/min/1.73 m^2
[5]; other patients, baseline (or month 6) to month 24
  mean (SD) annualized rate of change in mGFRiohexol: −1.0 (6.66) mL/min/1.73 m^2
[5]; other patients, baseline to month 24
  median change in mGFRiohexol: -0.34 mL/min/1.73 m²
[5]; [9]
  annualized change in eGFRCKD-EPI: −0.3 (0.66) mL/min/1.73 m^2
  annualized change in mGFRiohexol: −1.5 (1.33) mL/min/1.73 m^2
